In patent publication EP4671240A1, “SALT CONTAINING AROMATIC RING DERIVATIVE ANTAGONIST, PREPARATION METHOD THEREFOR, AND APPLICATION THEREOF” (Jiangsu Hansoh Pharmaceutical Group Co., Ltd., priority 2023, dated 2024):

Columns and labels:
[1] = biological target: T1, CYP450 3A4-M (Homo sapiens, UniProt P08684); assay: CYP enzyme single-point inhibition assay, 3A4-M; assay type: in vitro ADME; conditions: human liver microsomes, single-point method
T1 construct: Human liver microsome incubation system was used; from tissue; host or cells: human liver microsomes
Experimental: Human liver microsome incubation system was used, and the single-point method was used to quickly predict the inhibition on CYP450 enzyme subtypes (1A2, 2C19, 2D6, 3A4-M, and 3A4-T) by compounds.
For 2.5 mM NADPH, 4.165 mg of NADPH (reduced nicotinamide adenine dinucleotide phosphate) was weighed and 100 mM phosphate buffer was added to a final volume of 2 mL. For 0.25 mg/mL microsomes, 50 µL of 20 mg/mL microsomes was mixed with […] of 100 mM phosphate buffer evenly.
The test example compounds were weighed, diluted to 10 mM with DMSO, and then diluted to 100 µM with 100 mM phosphate buffer.
• 1. Liver microsomes (40 µL), substrate (10 µL), and test compound (10 µL) were added to a 96-well plate, and the mixture was pre-incubated for 3 min. • 2. NADPH (40 µL) was added. • 3. At 20 min, acetonitrile stop solution containing internal standard (300 µL) was added. • 4. The mixture was centrifuged and the sample was loaded.

[2] = biological target: T2, ETA receptors (Homo sapiens, UniProt P25101); assay: effect on calcium current in cells stably expressing ETA receptors (HEK293-ETA, FLIPR, antagonist); assay type: cell-based; conditions: 11 concentration points 10 µM to 0.17 nM
T2 construct: host or cells: HEK293
T2 sequence (P25101 21-427): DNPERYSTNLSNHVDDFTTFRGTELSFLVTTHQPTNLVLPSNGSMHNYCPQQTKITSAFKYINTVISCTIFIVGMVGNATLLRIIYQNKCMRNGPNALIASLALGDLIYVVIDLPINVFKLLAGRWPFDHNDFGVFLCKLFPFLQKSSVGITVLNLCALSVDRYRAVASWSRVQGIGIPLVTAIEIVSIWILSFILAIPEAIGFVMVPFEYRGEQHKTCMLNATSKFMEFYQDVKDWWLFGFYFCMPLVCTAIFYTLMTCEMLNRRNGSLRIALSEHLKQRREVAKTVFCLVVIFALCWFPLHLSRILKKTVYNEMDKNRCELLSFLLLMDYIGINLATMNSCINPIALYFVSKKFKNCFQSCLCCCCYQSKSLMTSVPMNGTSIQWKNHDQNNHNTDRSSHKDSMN
Source text: Test example 2. Determination of the effect of the compounds of the present invention on calcium current in cells stably expressing ETA receptors 1. Experimental objective: To test the antagonistic effect of compounds on HEK293-ETA cell activity 2. […] Experimental data processing method: FLIPR Tetra was used to read and collect the fluorescence signal value (RFU). The maximum RFU value was used to calculate the percent activation data based on the readings of the Low control (DMSO control) and High control (100 nM positive compound) experimental groups {% activation rate = (RFUsample - RFUlow control) / (RFUhigh control - RFUlow control)×100}. […]

T1 sequence (P08684 whole entry): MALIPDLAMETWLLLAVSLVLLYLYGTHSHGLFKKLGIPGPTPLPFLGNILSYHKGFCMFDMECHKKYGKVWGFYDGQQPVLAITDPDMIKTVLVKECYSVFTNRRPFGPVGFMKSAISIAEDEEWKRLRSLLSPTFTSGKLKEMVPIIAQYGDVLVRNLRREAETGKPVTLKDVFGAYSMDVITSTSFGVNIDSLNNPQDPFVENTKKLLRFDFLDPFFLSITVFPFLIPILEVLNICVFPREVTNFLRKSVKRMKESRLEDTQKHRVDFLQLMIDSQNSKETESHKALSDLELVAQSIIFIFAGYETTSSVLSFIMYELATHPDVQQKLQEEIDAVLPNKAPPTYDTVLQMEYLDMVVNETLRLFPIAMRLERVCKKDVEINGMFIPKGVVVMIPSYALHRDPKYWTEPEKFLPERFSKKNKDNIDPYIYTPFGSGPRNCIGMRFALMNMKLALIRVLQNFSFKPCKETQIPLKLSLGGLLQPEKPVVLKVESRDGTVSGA

Compound	IC50 [1]	IC50 [2]
CCCCC1=NC2(CCCC2)C(=O)N1Cc1ccc(-c2ccccc2S(=O)(=O)Nc2noc(C)c2Cl)c(COCC)c1 [Example 8, 2-[4-[(2-Butyl-4-oxo-1,3-diazaspiro[4.4]non-1-en-3-yl)methyl]-2-(ethoxymethyl)phenyl]-N-(4-chloro-5-methyl-isoxazol-3-yl)benzenesulfonamide]	24.9 µM	0.0149 µM
[2H]C([2H])(c1ccc(-c2ccccc2S(=O)(=O)Nc2noc(C)c2Cl)c(COCC)c1)N1C(=O)C2(CCCC2)N=C1CCCC [Example 2, 4'-((2-Butyl-4-oxo-1,3-diazaspiro[4.4]non-1-en-3-yl)methyl-d2)-N-(4-chloro-5-methylisoxazol-3-yl)-2'-(ethoxymethyl)-[1,1'-biphenyl]-2-sulfonamide]	14.7 µM	0.0151 µM
